Measured values reported in the METLIN SMRT retention time set (Domingo-Almenara et al. 2019).

Experiment: gradient 5% acetonitrile 3 min, to 50% in 2 min, to 85% in 15 min, held 3 min, 100 µL/min
Details: column: Zorbax Extend-C18 2.1 x 50 mm; eluents: water / acetonitrile, 0.1% formic acid
How it was run: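 The system's dead and dwell volumes were 40 μL and 900 μL, with a Zorbax Extend-C18 column (2.1 × 50 mm, 1.8 μm) run at 100 μL/min in water and acetonitrile containing 0.1% formic acid each. Pure standards were analyzed in mixtures of ~100 molecules by HPLC–quadrupole time-of-flight mass spectrometry in positive and negative ionization mode. Retention time was assigned from computationally picked, manually inspected adduct peaks.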
An RP-LC retention time of 592 s was found for `O=C(CN1CCCC(COCc2ccccc2)C1)NCc1ccc2c(c1)OCO2` (stereo not drawn) in this work.
An RP-LC retention time of 875 s was found for `COc1ccccc1N1CCN(c2cc(SCC(=O)NC3CCCCC3)ncn2)CC1` in this work.
An RP-LC retention time of 661 s was found for `O=C(CCl)NC1(C(=O)O)CCCC1` in this work.
An RP-LC retention time of 893 s was found for `COc1ccc(-c2nnc(COc3ccc(NC(=O)c4cncc(Br)c4)cc3)o2)cc1` in this work.
An RP-LC retention time of 738 s was found for `CC(C)Oc1ccc(CNC(=O)c2nc(N3CCOCC3)c3ccccc3n2)cc1` in this work.
An RP-LC retention time of 886 s was found for `CCc1nn2c(CNS(=O)(=O)c3ccc(OC)cc3)c(-c3ccccc3)nc2s1` in this work.
An RP-LC retention time of 848 s was found for `COc1ccc(NC(=O)C(C)C2CCN(C(=O)Nc3ccc(C)cc3)CC2)c(OC)c1` (stereo not drawn) in this work.
An RP-LC retention time of 596 s was found for `NC(=O)c1nnn(Cc2ccccc2F)c1N` in this work.
An RP-LC retention time of 991 s was found for `CCc1ccc(-n2nc(N3CCCC(C(=O)NCc4cccc(Br)c4)C3)ccc2=O)cc1` (stereo not drawn) in this work.
An RP-LC retention time of 668 s was found for `O=C(Cn1nc2c3ccccc3ncn2c1=O)Nc1ccc(F)cc1F` in this work.
An RP-LC retention time of 1010 s was found for `COc1ccc(S(=O)(=O)N2CCCC(C(=O)N3CCN(c4ccccc4)CC3)C2)cc1Cl` (stereo not drawn) in this work.
An RP-LC retention time of 1040 s was found for `COc1cc(NC(=O)C2CCN(c3nccnc3Sc3ccccc3)CC2)cc(OC)c1` in this work.
An RP-LC retention time of 773 s was found for `CCOC(=O)C12CC1/C(=N\O)c1ccccc1O2` (stereo not drawn) in this work.
An RP-LC retention time of 1000 s was found for `Cc1sc(-c2cc(C(F)(F)F)[nH]n2)cc1S(=O)(=O)NC1CCCC1` in this work.
An RP-LC retention time of 928 s was found for `O=C(NCCc1csc(-c2ccccc2)n1)C1CCN(S(=O)(=O)c2ccc(F)cc2)CC1` in this work.
An RP-LC retention time of 1070 s was found for `COC(=O)C1=C(C)N(C2CCCC2)C(=O)C1(NC(=O)c1ccccc1OC)C(F)(F)F` (stereo not drawn) in this work.
An RP-LC retention time of 920 s was found for `COC(=O)C1=CN(c2ccc(C)c(F)c2)c2cc(F)ccc2S1(=O)=O` in this work.
An RP-LC retention time of 967 s was found for `COc1ccc(-c2nccc(C3CCCN(C(=O)c4ccccc4)C3)n2)cc1` (stereo not drawn) in this work.
An RP-LC retention time of 872 s was found for `O=C(NCCC1=CCCCC1)C1CCN(c2cnc(N3CCCCC3)nc2)CC1` in this work.
An RP-LC retention time of 704 s was found for `CCOC(=O)N1CCN(C(=O)Nc2nc(CC(=O)NC3CCCCCC3)cs2)CC1` in this work.
An RP-LC retention time of 648 s was found for `CC1CCCN(S(=O)(=O)c2ccc(-n3cnc(C(=O)N4CCN(C)CC4)c3)nc2)C1` (stereo not drawn) in this work.
An RP-LC retention time of 862 s was found for `COc1ccc(Cn2nc3ccc(S(=O)(=O)N4CCCC4)cn3c2=O)cc1F` in this work.
An RP-LC retention time of 742 s was found for `Cc1cc(NC(=O)C(=O)NCc2nc(-c3ccccc3)no2)no1` in this work.
An RP-LC retention time of 563 s was found for `Cn1cccc1C(CNS(=O)(=O)c1ccc2c(c1)OCCO2)N1CCOCC1` (stereo not drawn) in this work.
An RP-LC retention time of 1010 s was found for `Cc1ccc(CNC(=O)C2CCN(S(=O)(=O)c3cc(-c4noc(C5CC5)n4)sc3C)CC2)o1` in this work.
An RP-LC retention time of 1070 s was found for `Cc1cccc(OCc2nnc(SCC(=O)Nc3nc(-c4ccccc4)cs3)o2)c1` in this work.
An RP-LC retention time of 591 s was found for `COc1cc(NC(=O)C2CCCN(C(=O)c3cc(-c4ccncc4)n[nH]3)C2)cc(OC)c1OC` (stereo not drawn) in this work.
An RP-LC retention time of 976 s was found for `COc1ccc(Cc2nnc3sc(-c4ccccc4OC)nn23)cc1` in this work.
An RP-LC retention time of 647 s was found for `COc1ccc(NC(=O)N2C[C@@H]3C[C@H]2C[C@@H]3NC(=O)c2ccccc2)c(OC)c1` in this work.
An RP-LC retention time of 666 s was found for `CCc1nnc([C@@H]2CC(F)(F)CN2C(=O)CCn2nc(C)cc2C)o1` in this work.
An RP-LC retention time of 915 s was found for `Cc1nn(-c2ccccc2)c2c1N(CC(=O)N1CCN(c3ccc(F)cc3)CC1)C(=O)CS2` in this work.
An RP-LC retention time of 847 s was found for `COc1cc2c(cc1OC)CN(C(=O)c1cc(-c3ccc(F)cc3)c[nH]1)CC2` in this work.
An RP-LC retention time of 685 s was found for `O=C(Cn1c(=O)c2cccn2c2ccc(F)cc21)NC1CC1` in this work.
An RP-LC retention time of 742 s was found for `O=C(NCc1csc(C2CCCN(C(=O)c3c(F)cccc3F)C2)n1)C1CCC1` (stereo not drawn) in this work.
An RP-LC retention time of 857 s was found for `CCOC(=O)c1nnc2c(-c3ccc(F)cc3)c(C)nn2c1N` in this work.
An RP-LC retention time of 846 s was found for `COc1ccc(OCC(=O)N2CCN(c3cc(=O)n(C(C)C)c(=O)n3C(C)C)CC2)cc1` in this work.
An RP-LC retention time of 901 s was found for `O=C(NCCc1csc(-c2cccs2)n1)C1CCN(C(=O)CCC2CCCC2)CC1` in this work.
An RP-LC retention time of 800 s was found for `Cc1csc(NC(=O)c2sc3nc(-c4cccc([N+](=O)[O-])c4)cn3c2C)n1` in this work.
An RP-LC retention time of 825 s was found for `Cc1cccc(CNC(=O)C2c3ccccc3CC(=O)N2C(C)C)c1` (stereo not drawn) in this work.
An RP-LC retention time of 774 s was found for `CCCn1ccc2sc(C)c(C(=O)O)c2c1=O` in this work.
An RP-LC retention time of 1320 s was found for `CCOc1ccccc1NC(=O)C1CCCN(c2nc3ccccc3nc2OCC)C1` (stereo not drawn) in this work.
An RP-LC retention time of 851 s was found for `COc1cccc(NS(=O)(=O)c2cc3c(s2)CCN(C(=O)C2CCC2)C3)c1` in this work.
An RP-LC retention time of 612 s was found for `CNC(=O)[C@@H]1CN(C(=O)c2ccoc2C)C[C@H]1c1nc(C)no1` in this work.
An RP-LC retention time of 698 s was found for `Cc1cc(C)n2nc(SCC(=O)NCc3ccccc3Cl)nc2n1` in this work.
An RP-LC retention time of 818 s was found for `CCCNS(=O)(=O)c1cc2c(cc1C)CCN2C(=O)CC` in this work.
An RP-LC retention time of 837 s was found for `O=C(c1cc(F)cc(F)c1)N1CCN(c2cc(-c3ccc(F)cc3)[nH]n2)CC1` in this work.
An RP-LC retention time of 787 s was found for `CCC(C)NC(=O)c1nnc(-c2ccc(S(=O)(=O)N3CCOCC3)cc2)o1` (stereo not drawn) in this work.
An RP-LC retention time of 647 s was found for `O=C(c1nnc(-c2ccc(S(=O)(=O)N3CCOCC3)cc2)o1)N1CCN(C2CCCCC2)CC1` in this work.
An RP-LC retention time of 776 s was found for `O=C1C(c2cccnc2)N(CCCc2ccccc2)C(=O)CN1c1ccccc1` (stereo not drawn) in this work.
An RP-LC retention time of 849 s was found for `N#Cc1ccc(-c2nc(-c3ccc4c(c3)nnn4CCC(=O)N3CCCC3)no2)c(F)c1` in this work.
An RP-LC retention time of 698 s was found for `Cc1c(-c2ccccc2)nc2ccc(Br)cc2c1C(=O)O` in this work.
An RP-LC retention time of 1060 s was found for `O=S(=O)(NC1CCCC1)c1ccc(-c2cc(C(F)(F)F)on2)o1` in this work.
An RP-LC retention time of 1110 s was found for `Cc1cccc(S(=O)(=O)N2CCC(c3noc(-c4cccc(F)c4)n3)CC2)c1` in this work.
An RP-LC retention time of 669 s was found for `Cc1nnc(N2CCC(C(=O)N3CCOCC3)CC2)c2nn(-c3ccc(Cl)cc3)c(C)c12` in this work.
An RP-LC retention time of 654 s was found for `Cc1nnc(C2CCCN(C(=O)c3cc(-c4ccc5c(c4)OCO5)n[nH]3)C2)s1` (stereo not drawn) in this work.
An RP-LC retention time of 647 s was found for `COc1ccc(NC(=O)NCCc2nc3cccnc3n2C2CCCC2)cc1OC` in this work.
An RP-LC retention time of 705 s was found for `CCCNC(=O)c1cccc(-c2nc3cccnc3n2CCC)c1` in this work.
An RP-LC retention time of 889 s was found for `CCN1C(=O)C(C)(C)COc2ccc(NC(=O)Cc3ccc(F)cc3)cc21` in this work.
An RP-LC retention time of 874 s was found for `Cc1ccc2c(c1)N(c1ccc(N(C)C)cc1)C=C(C(=O)N1CCCC1)S2(=O)=O` in this work.
An RP-LC retention time of 605 s was found for `Cc1cccc2c(C(=O)N3CCCC3)cc(N(C)C)nc12` in this work.
An RP-LC retention time of 869 s was found for `Cc1ccc(NC(=O)Cn2nc(N(C)C)c3ccccc3c2=O)c(C)c1` in this work.
An RP-LC retention time of 915 s was found for `COc1ccc(N2CCN(c3nc(C(=O)NCC4CC4)cs3)CC2)cc1` in this work.
An RP-LC retention time of 739 s was found for `CCc1ccccc1S(=O)(=O)Nc1ccc2c(c1)nc(-c1ccc(C(=O)N(CC)CC)cc1)n2C` in this work.
An RP-LC retention time of 692 s was found for `O=C1NCCCCCN(C(=O)c2ccsc2)[C@H]2CCC[C@@H]12` in this work.
An RP-LC retention time of 787 s was found for `Cc1cc(C)c2sc(N3CCN(C(=O)C4CCCN(S(C)(=O)=O)C4)CC3)nc2c1` (stereo not drawn) in this work.
An RP-LC retention time of 1020 s was found for `Cc1ccc(N2C(=O)C3N=NN(Cc4nc(-c5ccccc5)no4)C3C2=O)cc1C` (stereo not drawn) in this work.
An RP-LC retention time of 731 s was found for `O=C(NCC1CCCO1)C1CCN(Cc2cc3ccccc3n2Cc2ccccc2Cl)CC1` (stereo not drawn) in this work.
An RP-LC retention time of 691 s was found for `Cc1cccc(CS(=O)(=O)N(CCc2cccs2)Cc2cccnc2)c1` in this work.
An RP-LC retention time of 753 s was found for `COc1cc(CN2C[C@@H]3C(=O)N(CCc4ccccc4)C(=O)[C@@H]3C2)cc(OC)c1` in this work.
An RP-LC retention time of 621 s was found for `O=C(Nc1ccc(Cn2cncn2)cc1)c1ccoc1` in this work.
An RP-LC retention time of 764 s was found for `CC(C)N(C(=O)Cn1c(C2CC(=O)N(Cc3ccccc3)C2)nc2ccccc21)C(C)C` (stereo not drawn) in this work.
An RP-LC retention time of 1070 s was found for `COc1ccc(C2(C(=O)N3CCO[C@@H](COc4ccccn4)[C@@H]3c3ccccc3)CC2)cc1` in this work.
An RP-LC retention time of 1000 s was found for `O=c1c2cc(Cl)ccc2oc2cc(O)cc(O)c12` in this work.
An RP-LC retention time of 648 s was found for `CCN1CCN(c2nc3cc(C(=O)OC)ccc3c(=O)n2-c2ccc3c(c2)OCO3)CC1` in this work.
An RP-LC retention time of 1180 s was found for `c1ccc(CCc2nnc3sc(-c4ccc5ccccc5n4)nn23)cc1` in this work.
An RP-LC retention time of 660 s was found for `COc1ccc(N2CCN(C(=O)c3c(OC)cc(=O)n4c3CCCC4)CC2)cc1` in this work.
An RP-LC retention time of 619 s was found for `Cc1nc2n(c(=O)c1C)CCN2CC(=O)NCc1cccs1` in this work.
An RP-LC retention time of 1190 s was found for `CCOc1ccc(S(=O)(=O)N2CCC(c3noc(-c4cccc(F)c4)n3)CC2)cc1` in this work.
An RP-LC retention time of 654 s was found for `O=C(c1ccnnc1)N1C[C@@H](COCC2CC2)[C@H](c2ccccn2)C1` in this work.
An RP-LC retention time of 583 s was found for `Cc1ccc(CNC(=O)C2CCCN(c3cc(=O)n(C)c(=O)n3C)C2)o1` (stereo not drawn) in this work.
An RP-LC retention time of 661 s was found for `CCCNC(=O)CC1CCN(C(=O)c2[nH]c(C)cc2C)CC1` in this work.
An RP-LC retention time of 974 s was found for `O=C(CN1c2ccc(F)cc2-c2ccccc2S1(=O)=O)Nc1ccc(F)c(F)c1` in this work.
An RP-LC retention time of 688 s was found for `CCOC(=O)c1nc(Nc2ccc(S(=O)(=O)Nc3ncccn3)cc2)c2ccccc2n1` in this work.
An RP-LC retention time of 628 s was found for `CSc1ccccc1C(=O)N1CC2CC1C(=O)O2` (stereo not drawn) in this work.
An RP-LC retention time of 1060 s was found for `COc1ccc(Cc2nc(-c3ccc4oc(C)nc4c3)no2)c(Cl)c1` in this work.
An RP-LC retention time of 1060 s was found for `O=C(Cn1cnc2c(sc3nc(-c4ccccc4)ccc32)c1=O)NCCc1ccc(Cl)cc1` in this work.
An RP-LC retention time of 794 s was found for `COC(=O)c1c(C)[nH]c(C(=O)N2CCC(CC(=O)NC3CCCCCC3)CC2)c1C` in this work.
An RP-LC retention time of 900 s was found for `CCCn1cc(CCNS(=O)(=O)Cc2ccc(F)cc2Cl)c2cccnc21` in this work.
